In publication PMC6508583 (Journal of the American Chemical Society, 2019):
Values after ≈ are worked out from the molar mass of the structure shown. Where two headings read alike, the source gives them in different places.

What was measured:
[1] = system: wild-type bacterial ribosome; assay: Cell-free translation assay, wild-type bacterial ribosome; type: biochemical; conditions: in vitro translation inhibition
[2] = system: Mit13 hybrid ribosome (decoding A site of the human mitochondrial ribosome); type: biochemical; conditions: for Selectivity Mit 13: Mit13 over wt bacterial ribosome; for IC50 Mit13: in vitro translation inhibition, Mit13 hybrid ribosome
[3] = system: A1555G mutant mitochondrial hybrid ribosome; type: biochemical, human; conditions: for Selectivity A1555G: A1555G over wt bacterial ribosome; for IC50 A1555G: in vitro translation inhibition, A1555G mutant mitochondrial hybrid ribosome
[4] = system: Cyt14 hybrid ribosome (decoding A site of the human cytoplasmic ribosome); type: biochemical; conditions: for Selectivity Cyt14: Cyt14 over wt bacterial ribosome; for IC50 Cyt 14: in vitro translation inhibition, Cyt14 hybrid ribosome
MRSA = assay: Antibacterial activity against reference strains: MRSA; type: cell-based; conditions: for Antibacterial activity (MIC) MRSA AG038: strain AG038; for Antibacterial activity (MIC) MRSA AG042: strain AG042 carries the AAC(6)’, ANT(4’,4’’) and APH(3’) genes; for MIC: Staphylococcus aureus, MRSA
K. pneumoniae = assay: Antibacterial activity against reference strains: K. pneumoniae; type: cell-based; conditions: strain AG215
E. cloacae = assay: Antibacterial activity against reference strains: E. cloacae; type: cell-based; conditions: for Antibacterial activity (MIC) E. cloacae AG290: strain AG290; for MIC: Enterobacter cloacae, read-out: Antibacterial activity (MIC) E. cloacae AG290
A. baumannii = assay: Antibacterial activity against reference strains: A. baumannii; type: cell-based; conditions: strain AG225
E. coli = assay: Antibacterial activity against reference strains: E. coli; conditions: for Antibacterial activity (MIC) E. coli AG003: strain AG003 carries the AAC(3) gene; for Antibacterial activity (MIC) E. coli AG001: strain AG001; for MIC: Escherichia coli
P. aeruginosa = assay: Antibacterial activity against reference strains: P. aeruginosa; conditions: for Antibacterial activity (MIC) P. aeruginosa AG031: strain AG031 carries the APH(3’) gene
[5] = system: E. coli carrying specific resistance determinants; assay: Activity against wild-type and engineered E. coli carrying specific AMEs or RMTs; type: cell-based; conditions: Escherichia coli
[6] = system: E. coli clinical isolates carrying two or more resistance determinants; assay: Activity against E. coli clinical isolates with multiple resistance determinants; type: cell-based; conditions: Escherichia coli
[7] = system: E. cloacae clinical isolates carrying two or more resistance determinants; type: cell-based; conditions: Enterobacter cloacae
[8] = read-out: Antibacterial activity (MIC) MRSA AG038
[9] = read-out: Antibacterial activity (MIC) MRSA AG042
[10] = read-out: Activity (MIC) E. coli AG006
[11] = read-out: Activity (MIC) E. coli AG007
[12] = read-out: Activity (MIC) E. coli AG008
[13] = read-out: Activity (MIC) E. coli AG009
[14] = read-out: Activity (MIC) E. coli AG036
[15] = read-out: Activity (MIC) E. coli AG103
[16] = read-out: Activity (MIC) E. coli AG105
[17] = read-out: Activity (MIC) E. coli AG166
[18] = read-out: Activity (MIC) E. coli isolate 201430298
[19] = read-out: Activity (MIC) E. coli isolate 201441114
[20] = read-out: Activity (MIC) E. coli isolate 2014251408
[21] = read-out: Activity (MIC) E. coli isolate 2014405344
[22] = read-out: Activity (MIC) E. cloacae isolate 201333207
[23] = read-out: Activity (MIC) E. cloacae isolate 201385168
[24] = read-out: Activity (MIC) E. cloacae isolate 201430601
[25] = read-out: Activity (MIC) E. cloacae isolate 201435487
[26] = read-out: Antibacterial activity (MIC) E. coli AG001
[27] = read-out: Antibacterial activity (MIC) E. coli AG003

| Structure (SMILES) | IC50 wt [1] | Selectivity Mit 13 [2] | IC50 Mit13 [2] | Selectivity A1555G [3] | IC50 A1555G [3] | Selectivity Cyt14 [4] | IC50 Cyt 14 [4] | Antibacterial activity (MIC) MRSA AG038 (MRSA) | Antibacterial activity (MIC) MRSA AG042 (MRSA) | Antibacterial activity (MIC) K. pneumoniae AG215 (K. pneumoniae) | Antibacterial activity (MIC) E. cloacae AG290 (E. cloacae) | Antibacterial activity (MIC) A. baumannii AG225 (A. baumannii) | Antibacterial activity (MIC) E. coli AG003 (E. coli) | MIC (MRSA; [8]) | MIC (MRSA; [9]) | MIC (E. cloacae) | MIC [5, 10] | MIC [5, 11] | MIC [5, 12] | MIC [5, 13] | other results |
| --- | --- | --- | --- | --- | --- | --- | --- | --- | --- | --- | --- | --- | --- | --- | --- | --- | --- | --- | --- | --- | --- |
| NC[C@@H]1O[C@H](O[C@H]2[C@@H](O)[C@H](O[C@@H]3[C@@H](O)[C@H](N)C[C@H](N)[C@H]3O[C@H]3O[C@H](CO)C[C@H](O)[C@H]3N)O[C@@H]2CO)[C@H](N)[C@@H](O)[C@@H]1O [Compound 2, 4’-deoxy paromomycin] | 0.05 µg/mL (≈ 0.0834 µM) | 1480 | 74 µg/mL (≈ 123 µM) | 480 | 24 µg/mL (≈ 40 µM) | 560 | 28 µg/mL (≈ 46.7 µM) | 16 µg/mL | 8 to 16 µg/mL | 4 µg/mL | 4 to 8 µg/mL | 8 µg/mL | 32 µg/mL |  |  |  |  |  |  |  |  |
| NCC1OC(OC2C(CO)OC(OC3C(O)C(N)CC(N)C3OC3OC(CO)C(CC(O)CO)C(O)C3N)C2O)C(N)C(O)C1O (centres unmarked) [Compound 37] | 0.10 µg/mL (≈ 0.148 µM) | 320 | 32 µg/mL (≈ 47.5 µM) | 330 | 33 µg/mL (≈ 49 µM) | 590 | 59 µg/mL (≈ 87.6 µM) | 4 µg/mL | 8 µg/mL | 8 µg/mL | 4 to 8 µg/mL | 8 µg/mL | 8 µg/mL |  |  |  |  |  |  |  | Antibacterial activity (MIC) E. coli AG001 (E. coli): 16 µg/mL; Antibacterial activity (MIC) P. aeruginosa AG031 (P. aeruginosa): 16 to 32 µg/mL; Antibacterial activity (MIC) P. aeruginosa AG220 (P. aeruginosa; strain AG220 carries the APH(3’) gene): 16 µg/mL |
| NCC[C@H](O)C(=O)N[C@@H]1C[C@H](N)[C@@H](O[C@H]2O[C@H](CN)[C@@H](O)[C@H](O)[C@H]2O)[C@H](O)[C@H]1O[C@H]1O[C@H](CO)[C@@H](O)[C@H](N)[C@H]1O [Amikacin] | 0.02 µg/mL (≈ 0.0342 µM) | 600 | 12 µg/mL (≈ 20.5 µM) | 21 | 0.42 µg/mL (≈ 0.717 µM) | 4500 | 90 µg/mL (≈ 154 µM) |  |  |  |  |  |  | 4 µg/mL (≈ 6.83 µM) | 16 to 32 µg/mL (≈ 27.3 to 54.6 µM) | 1 µg/mL (≈ 1.71 µM) | 1 to 2 µg/mL (≈ 1.71 to 3.42 µM) | 2 µg/mL (≈ 3.42 µM) | 1 to 2 µg/mL (≈ 1.71 to 3.42 µM) | 32 µg/mL (≈ 54.6 µM) | MIC [5, 14]: 4 to 8 µg/mL (≈ 6.83 to 13.7 µM); MIC [5, 15]: > 128 µg/mL; MIC [5, 16]: 2 µg/mL (≈ 3.42 µM); MIC [5, 17]: 2 µg/mL (≈ 3.42 µM); MIC [6, 18]: 8 µg/mL (≈ 13.7 µM); MIC [6, 19]: 64 µg/mL (≈ 109 µM); MIC [6, 20]: 64 µg/mL (≈ 109 µM); MIC [6, 21]: > 256 µg/mL; MIC [7, 22]: 16 µg/mL (≈ 27.3 µM); MIC [7, 23]: > 256 µg/mL; MIC [7, 24]: 8 µg/mL (≈ 13.7 µM); MIC [7, 25]: 4 µg/mL (≈ 6.83 µM); MIC (E. coli; [26]): 2 µg/mL (≈ 3.42 µM); MIC (E. coli; [27]): 2 µg/mL (≈ 3.42 µM) |
| NC[C@H]1O[C@H](O[C@H]2[C@H](O)[C@@H](O[C@H]3O[C@H](CO)[C@@H](O)[C@H](N)[C@H]3O)[C@H](N)C[C@@H]2N)[C@H](N)C[C@@H]1O [Tobramycin] | 0.02 µg/mL (≈ 0.0428 µM) | 750 | 15 µg/mL (≈ 32.1 µM) | 25 | 0.5 µg/mL (≈ 1.07 µM) | 1350 | 27 µg/mL (≈ 57.8 µM) |  |  |  |  |  |  | 0.5 to 1 µg/mL (≈ 1.07 to 2.14 µM) | ≥ 256 µg/mL | 0.5 to 1 µg/mL (≈ 1.07 to 2.14 µM) | 0.5 µg/mL (≈ 1.07 µM) | 4 µg/mL (≈ 8.56 µM) | 8 µg/mL (≈ 17.1 µM) | 64 to 128 µg/mL (≈ 137 to 274 µM) | MIC [5, 14]: 16 to 32 µg/mL (≈ 34.2 to 68.4 µM); MIC [5, 15]: > 128 µg/mL; MIC [5, 16]: 1 µg/mL (≈ 2.14 µM); MIC [5, 17]: 0.5 to 1 µg/mL (≈ 1.07 to 2.14 µM); MIC [6, 18]: 256 µg/mL (≈ 548 µM); MIC [6, 19]: 32 µg/mL (≈ 68.4 µM); MIC [6, 20]: 128 µg/mL (≈ 274 µM); MIC [6, 21]: > 256 µg/mL; MIC [7, 22]: 32 µg/mL (≈ 68.4 µM); MIC [7, 23]: > 256 µg/mL; MIC [7, 24]: 32 µg/mL (≈ 68.4 µM); MIC [7, 25]: 16 µg/mL (≈ 34.2 µM); MIC (E. coli; [26]): 1 to 2 µg/mL (≈ 2.14 to 4.28 µM); MIC (E. coli; [27]): 4 µg/mL (≈ 8.56 µM) |
| CNC(C)C1CCC(N)C(OC2C(N)CC(N)C(OC3OCC(C)(O)C(NC)C3O)C2O)O1 (centres unmarked) [Gentamicin] | 0.02 µg/mL (≈ 0.0419 µM) |  | 9 µg/mL (≈ 18.8 µM) |  | 0.5 µg/mL (≈ 1.05 µM) |  | 33 µg/mL (≈ 69.1 µM) |  |  |  |  |  |  | 0.25 µg/mL (≈ 0.523 µM) | 64 µg/mL (≈ 134 µM) | 0.25 µg/mL (≈ 0.523 µM) | 0.5 µg/mL (≈ 1.05 µM) | 32 µg/mL (≈ 67 µM) | 8 to 16 µg/mL (≈ 16.8 to 33.5 µM) | 1 to 2 µg/mL (≈ 2.09 to 4.19 µM) | MIC [5, 14]: 0.5 µg/mL (≈ 1.05 µM); MIC [5, 15]: > 128 µg/mL; MIC [5, 16]: 32 µg/mL (≈ 67 µM); MIC [5, 17]: 0.5 µg/mL (≈ 1.05 µM); MIC [6, 18]: 128 µg/mL (≈ 268 µM); MIC [6, 19]: 16 µg/mL (≈ 33.5 µM); MIC [6, 20]: 256 µg/mL (≈ 536 µM); MIC [6, 21]: > 256 µg/mL; MIC [7, 22]: 64 µg/mL (≈ 134 µM); MIC [7, 23]: > 256 µg/mL; MIC [7, 24]: 16 µg/mL (≈ 33.5 µM); MIC [7, 25]: 64 µg/mL (≈ 134 µM); MIC (E. coli; [26]): 1 to 2 µg/mL (≈ 2.09 to 4.19 µM); MIC (E. coli; [27]): 32 to 64 µg/mL (≈ 67 to 134 µM) |
| CCC1C(CO)OC(OC2C(N)CC(N)C(O)C2OC2OC(CO)C(OC3OC(CN)C(O)C(O)C3N)C2O)C(N)C1O (centres unmarked) [Compound 35] | 0.06 µg/mL (≈ 0.0956 µM) | 3033 | 182 µg/mL (≈ 290 µM) | 2150 | 129 µg/mL (≈ 206 µM) | 1867 | 112 µg/mL (≈ 178 µM) | 8 µg/mL | 4 to 8 µg/mL | 4 µg/mL | 4 to 8 µg/mL | 16 to 32 µg/mL | 8 µg/mL |  |  |  |  |  |  |  | Antibacterial activity (MIC) E. coli AG001 (E. coli): 8 µg/mL; Antibacterial activity (MIC) P. aeruginosa AG031 (P. aeruginosa): 64 to 128 µg/mL |
